“Also recorded” adds a separate entry of the source.
What was measured:
PTP1B [1] = target: T1, PTP1B (Homo sapiens, UniProt P18031); assay: PTP1B inhibitory assay (pNPP, spectrocolorimetric); type: biochemical; settings: pNPP substrate; three independent determinations
T1 sequence (P18031 1-435): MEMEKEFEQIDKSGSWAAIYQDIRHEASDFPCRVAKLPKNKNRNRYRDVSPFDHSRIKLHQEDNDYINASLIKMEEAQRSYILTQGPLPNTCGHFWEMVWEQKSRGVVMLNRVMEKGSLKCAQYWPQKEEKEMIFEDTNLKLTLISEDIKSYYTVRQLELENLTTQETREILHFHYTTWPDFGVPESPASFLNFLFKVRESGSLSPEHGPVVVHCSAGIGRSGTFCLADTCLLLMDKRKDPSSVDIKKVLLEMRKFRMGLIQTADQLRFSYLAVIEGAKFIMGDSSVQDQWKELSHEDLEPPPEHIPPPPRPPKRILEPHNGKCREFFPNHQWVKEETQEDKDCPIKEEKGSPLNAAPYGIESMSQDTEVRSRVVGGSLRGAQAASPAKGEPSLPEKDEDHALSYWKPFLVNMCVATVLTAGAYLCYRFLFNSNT
Experimental: To test the inhibitory activity of the compounds against PTP1B, a spectrocolorimetric method previously described was employed. The compounds and positive control were dissolved in DMSO or buffer solution [50 mM; Tris-HCI Buffer, pH 6.8], DL-dithiothreitol 1.5 mM, all from Sigma–Aldrich, St. Louis, MO, USA. Aliquots of 0–10 μL of testing compounds (triplicated) were incubated for 10 min at 37 °C with 85 μL of enzyme stock solution (3 μM) in buffer solution. After incubation, 5 μL of the substrate p-nitrophenyl phosphate (pNPP, 0.5 mM, Sigma–Aldrich, St. Louis, MO, USA) were added and incubated a further 25 min at 37 °C; then, the absorbance was recorded at 415 nm.

PTP1B [2] = target: T1, PTP1B; assay: Enzyme kinetics of PTP1B inhibition; type: biochemical; settings: for Inhibition Type: best fit of competitive vs non-competitive model, Lineweaver-Burk; for Ki: non-linear regression of saturation curves at fixed inhibitor concentrations
Experimental: The kinetic studies were carried out under the same conditions described above. Different saturation curves were constructed at fixed inhibitor concentrations. The different inhibitor concentrations were determined based on the previously determined IC50 for each compound. Subsequently, the data obtained were analyzed through a non-linear regression, using OriginPro version 2018 (64-bit) SR1 (Northamton MA, USA, https://www.originlab.com) (accessed on 2 April 2021), adjusting to the following mathematical models:
And non-competitive: y=Vm×s^nh/(1+i/Ki)×S05^nh+(1+i/Ki)×s^nh where Vm is the maximum velocity, S and i are the concentration of substrate and inhibitor, respectively; Ki is the inhibition constant, and nh is the number of Hill.
Additionally, Lineweaver–Burk graphs were constructed to visualize the type of inhibition graphically.

Structure (SMILES)	melting point	IC50 (PTP1B [1])	Inhibition Type (PTP1B [2])	Ki (PTP1B [2])	Inhibition Type (PTP1B [2]; listed as ursolic acid)
CC1(C)c2[nH]c3ccc(F)cc3c2C[C@@]2(C)C1CC[C@]1(C)C2C(=O)C=C2C3C[C@@](C)(C(=O)O)CC[C@]3(C)CC[C@]21C (stereo partly drawn) [Compound 4d]	245 to 248 °C	5.2 ± 0.22 µM	–	–	–
CC1(C)c2c(cnn2-c2ccccc2)C[C@@]2(C)C1CC[C@]1(C)C2C(=O)C=C2C3C[C@@](C)(C(=O)O)CC[C@]3(C)CC[C@]21C (stereo partly drawn) [Compound 5a]	243 to 245 °C	5.1 ± 0.56 µM	–	–	–
Cc1ccc(C(=O)Nc2ccc(S(=O)(=O)O)c3cc(S(=O)(=O)O)cc(S(=O)(=O)O)c23)cc1NC(=O)c1cccc(NC(=O)Nc2cccc(C(=O)Nc3cc(C(=O)Nc4ccc(S(=O)(=O)O)c5cc(S(=O)(=O)O)cc(S(=O)(=O)O)c45)ccc3C)c2)c1 [SU, suramin]	–	–	competitive inhibition; also recorded: competitive inhibitor	–	–
COc1ccc2[nH]c3c(c2c1)C[C@@]1(C)C(CC[C@]2(C)C1C(=O)C=C1C4C[C@@](C)(C(=O)O)CC[C@]4(C)CC[C@]12C)C3(C)C (stereo partly drawn) [Compound 4b]	243 to 244 °C	4.3 ± 0.26 µM	–	–	–
CC1(C)[C@@H](OC(=O)CCC(=O)O)CC[C@]2(C)[C@H]3C(=O)C=C4[C@@H]5C[C@@](C)(C(=O)O)CC[C@]5(C)CC[C@@]4(C)[C@]3(C)CC[C@@H]12 [CA, carbenoxolone, reference compound]	–	69.7 ± 6.98 µM	–	–	–
Cc1ccc(-n2ncc3c2C(C)(C)C2CC[C@]4(C)C(C(=O)C=C5C6C[C@@](C)(C(=O)O)CC[C@]6(C)CC[C@]54C)[C@@]2(C)C3)cc1 (stereo partly drawn) [Compound 5c]	–	4.8 ± 0.3 µM	–	–	–
CC1(C(=O)O)CCC2(C)CCC3(C)C(=CC(=O)C4C5(C)Cc6c([nH]c7ccc(C(F)(F)F)cc67)C(C)(C)C5CCC43C)C2C1 (stereo not drawn) [Compound 4f]	–	2.5 ± 0.03 µM	non-competitive inhibition; also recorded: non-competitive inhibitors	3.9 ± 0.5 µM	–
CC1(C)c2[nH]c3ccccc3c2C[C@@]2(C)C1CC[C@]1(C)C2C(=O)C=C2C3C[C@@](C)(C(=O)O)CC[C@]3(C)CC[C@]21C (stereo partly drawn) [Compound 4a]	245 to 248 °C	6.6 ± 0.13 µM	–	–	–
COc1ccc(-n2ncc3c2C(C)(C)C2CC[C@]4(C)C(C(=O)C=C5C6C[C@@](C)(C(=O)O)CC[C@]6(C)CC[C@]54C)[C@@]2(C)C3)cc1 (stereo partly drawn) [Compound 5b]	208 to 211 °C	4.8 ± 0.2 µM	–	–	–
CC1(C)c2c(cnn2-c2ccc(F)cc2)C[C@@]2(C)C1CC[C@]1(C)C2C(=O)C=C2C3C[C@@](C)(C(=O)O)CC[C@]3(C)CC[C@]21C (stereo partly drawn) [Compound 5d]	260 to 264 °C	9.6 ± 0.2 µM	–	–	–
C[C@H]1[C@H](C)CC[C@]2(C(=O)O)CC[C@]3(C)C(=CC[C@@H]4[C@@]5(C)CC[C@H](O)C(C)(C)[C@@H]5CC[C@]43C)[C@H]12 [UA, ursolic acid]	–	–	non-competitive inhibition	–	non-competitive inhibitor
CC1(C(=O)O)CCC2(C)CCC3(C)C(=CC(=O)C4C5(C)Cc6cnn(-c7ccc(C(F)(F)F)cc7)c6C(C)(C)C5CCC43C)C2C1 (stereo not drawn) [Compound 5f]	270 to 271 °C	4.4 ± 0.07 µM	non-competitive inhibition; also recorded: non-competitive inhibitors	4.6 ± 0.6 µM	–
CC1(C)c2[nH]c3ccc(Cl)cc3c2C[C@@]2(C)C1CC[C@]1(C)C2C(=O)C=C2C3C[C@@](C)(C(=O)O)CC[C@]3(C)CC[C@]21C (stereo partly drawn) [Compound 4e]	256 to 258 °C	10.1 ± 0.21 µM	–	–	–
Cc1ccc2[nH]c3c(c2c1)C[C@@]1(C)C(CC[C@]2(C)C1C(=O)C=C1C4C[C@@](C)(C(=O)O)CC[C@]4(C)CC[C@]12C)C3(C)C (stereo partly drawn) [Compound 4c]	268 to 271 °C	8.3 ± 0.1 µM	–	–	–
CC(C)CCC[C@@H](C)[C@H]1CC[C@H]2[C@@H]3C[C@@H](NCCCNCCCCNCCCN)[C@H]4C[C@@H](O)CC[C@]4(C)[C@H]3CC[C@]12C [CL, claramine]	–	13.7 ± 0.11 µM	non-competitive inhibition	15.4 ± 1.7 µM	–
CC1(C)c2c(cnn2-c2ccc(Cl)cc2)C[C@@]2(C)C1CC[C@]1(C)C2C(=O)C=C2C3C[C@@](C)(C(=O)O)CC[C@]3(C)CC[C@]21C (stereo partly drawn) [Compound 5e]	263 to 266 °C	7.5 ± 0.22 µM	–	–	–
